# Measurements taken from ChEMBL document CHEMBL3507680, “University of Dundee, Gates Library screen for HepG2 cell viability”.
# Assay: Human HepG2 cell viability assay in 384 well format
# Format: toxicity, cell-based
# Set-up: dose 125 nL, time 70.5 hour; concentration not given beside the values
# Conditions: HepG2 cells, read-out: Inhibition
row,SMILES,cytotoxicity at 70.5 h
1,O=C(c1ccccc1F)N1CC(c2nc(C3CC3)no2)C1,-11.5%
2,O=C(Nc1cccs1)N1CC(c2nc(C3CC3)no2)C1,-5.71%
3,O=C(C1CCCC1)N1CC(c2nc(Cc3ccccc3)no2)C1,-14.5%
4,CCOC(=O)CCC(=O)N1CC(c2nc(Cc3ccccc3)no2)C1,-6.9%
5,Cc1noc(C2CN(CC(=O)NCC3CCCO3)C2)n1 (configuration not stated),-3.62%
6,N#Cc1cccc(C(=O)N2CC(c3nc(-c4cccnc4)no3)C2)c1,10%
7,O=C(Cc1cccs1)N1CC(c2nc(-c3cnccn3)no2)C1,-6.93%
8,O=C(c1ccsc1)N1CC(c2nc(-c3ccc[nH]c3=O)no2)C1,12.8%
9,O=C(c1ccc(Cl)s1)N1CC(c2nc(-c3ccc[nH]c3=O)no2)C1,-8.84%
10,O=C(c1ccno1)N1CC(c2nc(-c3ccco3)no2)C1,-1.91%
11,O=C(NCC(Cc1cccc(F)c1)N1CCCC1=O)c1ccc(=O)[nH]n1 (configuration not stated),1.13%
12,CCCC(=O)NCC(Cc1cccc(F)c1)N1CCCC1=O (configuration not stated),-3.15%
13,CS(=O)(=O)NCC(Cc1cccc(F)c1)N1CCNC1=O (configuration not stated),-13.3%
14,O=S(=O)(Cc1ccccc1Cl)N1CCC2(CC1)OCCS2,-5.23%
15,CCc1ccccc1NC(=O)C1CN(C(C)=O)C1,11.2%
16,N#Cc1ccccc1NC(=O)C1CN(C(=O)c2ccc3c(c2)OCO3)C1,-7%
17,O=C(Cc1cccs1)N1CCOCC1CO (configuration not stated),-3.61%
18,C1CCN(c2nc(N3CCOCC3)nc3[nH]nnc23)CC1,-5.52%
19,O=C(NC1CCCC1)C1CCN(c2cc(-n3ccnc3)ncn2)CC1,12.8%
20,Cc1cccc(S(=O)(=O)NCC2CCN(c3cnccn3)CC2)c1,-10.1%
21,CCc1ccc(S(=O)(=O)NCC2CCN(c3cnccn3)CC2)s1,-10.3%
22,O=C(Cc1ccccc1Cl)NCCN1CCC(c2cccs2)CC1,1.31%
23,O=C(NCCc1ccccc1)NCCN1CCC(c2cccs2)CC1,8.49%
24,CSCC(C)(O)CNC(=O)c1cc(Cl)ccc1Cl (configuration not stated),-7.98%

row,SMILES,cytotoxicity at 70.5 h
1,CSCC(C)(O)CNS(=O)(=O)c1ccc(F)cc1 (configuration not stated),-7.51%
2,CSCC(C)(O)CNS(=O)(=O)c1cccc(Cl)c1 (configuration not stated),-4.18%
3,CSCC(C)(O)CNS(=O)(=O)c1ccc(Br)cc1 (configuration not stated),23.8%
4,CSCCC(C)(O)CNC(=O)Nc1ccccc1C (configuration not stated),-6.41%
5,O=C(NCCC(O)c1ccco1)c1ccco1 (configuration not stated),-5.28%
6,CSc1ncccc1C(=O)NCCC(O)c1ccco1 (configuration not stated),1.61%
7,O=C(NCCC(O)c1cccs1)c1ccc(Br)o1 (configuration not stated),-10.7%
8,COc1ccc(Cl)cc1NC(=O)N1CCc2nc(NC(C)=O)sc2C1,-5.4%
9,O=C(Nc1nc2c(s1)CN(S(=O)(=O)C1CC1)CC2)c1ccc(=O)[nH]c1,-10.9%
10,COc1ccccc1C(=O)Nc1nc2c(s1)CN(S(=O)(=O)C1CC1)CC2,-3.51%
11,Cc1cc(C(=O)Nc2nc3c(s2)CN(S(=O)(=O)C2CC2)CC3)c(C)o1,4.31%
12,O=C(Nc1nc2c(s1)CN(S(=O)(=O)C1CC1)CC2)c1ccc(Cl)s1,-11.1%
13,O=C(NCC1(O)CCOCC1)c1ccc(F)cc1,-4.94%
14,O=S(=O)(NCC1(O)CCOCC1)c1c(F)cccc1F,-2.88%
15,O=S(=O)(NCC1(O)CCOCC1)c1ccccc1Br,-0.33%
16,COc1ccccc1OCC(=O)NCC(C)(O)c1ccccc1 (configuration not stated),-12.5%
17,O=S(=O)(NCC1(O)CCOc2ccccc21)c1ccccc1F (configuration not stated),-4.25%
18,O=S(=O)(NCC1(O)CCOc2ccccc21)c1ccccc1Br (configuration not stated),-0.163%
19,Cc1cc(CNC(=O)c2ccno2)c(C)o1,-7.21%
20,Cc1cc(CNC(=O)COc2ccccc2F)c(C)o1,-0.958%
21,COc1cc(NC(=O)NCc2cc(C)oc2C)cc(OC)c1,-5.36%
22,O=C1CC(NS(=O)(=O)c2ccc(Br)cc2)CN1 (configuration not stated),-4.25%
23,O=C(NC1CC(=O)N(C2CC2)C1)c1cccs1 (configuration not stated),11.1%
24,CN(C)C(=O)c1cnn2c1OCCC2,-2.65%

row,SMILES,cytotoxicity at 70.5 h
1,CS(=O)(=O)N1CCN(C(=O)c2cnn3c2OCCC3)CC1,-2.74%
2,COc1ccccc1C(=O)N1CC2(COC(C)(C)OC2)C1,-0.0905%
3,CC1(C)OCC2(CO1)CN(C(=O)c1ccccc1Br)C2,-4.2%
4,CC(=O)Nc1cnc(-n2ccnc2)nc1,-1.27%
5,CC(=O)N(C)CC(=O)Nc1cnc(-n2ccnc2)nc1,0.242%
6,COc1ccc(NC(=O)Nc2cnc(N3CCN(C)CC3)nc2)cc1Cl,-0.129%
7,Cc1ccc(NC(=O)Nc2cnc(N3CCN(C)CC3)nc2)cc1,27.1%
8,O=S(=O)(Nc1cnc(N2CCCC2)nc1)c1ccc(F)cc1F,-6.31%
9,Cc1ccc(F)cc1S(=O)(=O)Nc1cnc(N2CCCC2)nc1,-9.37%
10,O=C(C[C@H]1[C@H]2CN(C(=O)c3cccnc3)C[C@@H]12)Nc1cccnc1,-1.44%
11,CCCN1CCC2(Cc3ccccc3NC2=O)C1 (configuration not stated),-0.983%
12,CCOCC(=O)N1CC[C@H]2OCC[C@@H](c3nnc(C)o3)[C@H]2C1,0.355%
13,Fc1cnc(N2CCOCC3(CCCNC3)C2)nc1 (configuration not stated),12.2%
14,CC(C)C(=O)N1CCCC2(CCCN2Cc2cccnc2)C1 (configuration not stated),1.65%
15,Cc1cnc(N2CCC3(CC2)CC(NS(C)(=O)=O)CO3)nc1 (configuration not stated),1.23%
16,CC(=O)N1CCO[C@@H]2CN(C(=O)c3ccc4ccccc4c3)CC[C@@H]2C1,-2.64%
17,O=C(c1cc2c(s1)CCN2C(=O)C1CC1)N1CCCC1,-4.7%
18,Cn1c(C(=O)NC2CCCC2)nc2c1CCN(Cc1ccccc1)C2,-5.5%
19,Cc1cnc(N2CCC3(CC2)CC3CNC(=O)N(C)C)nc1 (configuration not stated),-6.55%
20,COCCC1COC2(CCN(C(=O)C3CCC3)CC2)C1 (configuration not stated),-3.7%
21,Cc1nnc([C@@H]2CC[C@@H]3[C@@H](CCN3C3CCC3)O2)o1,-4.45%
22,Fc1cnc(N2CCOCC3(CCCN(c4cnccn4)C3)C2)nc1 (configuration not stated),-3.83%
23,CN1CCN(C(=O)c2cc3c(s2)CCN3C(=O)C2CC2)CC1,-1.1%
24,O=C(NCCn1ccnc1)N1CCCC1c1ccncc1 (configuration not stated),1.26%

row,SMILES,cytotoxicity at 70.5 h
1,Cc1noc(C2CCCN(C(=O)CCNc3ncccn3)C2)n1 (configuration not stated),-13.2%
2,Cc1cnn(CC(=O)NCC2CCN(c3cc(Cl)ccc3C)C2)c1 (configuration not stated),6.3%
3,CC(C)n1ccnc1CN1CCCN(C(=O)c2ncccc2O)CC1,0.148%
4,Cc1cc(C2CCCN2Cc2cc(=O)n(C)c(=O)n2C)no1 (configuration not stated),18.5%
5,Cn1cnc2c1CCN(Cc1csc(-c3ccc(F)cc3)n1)C2,-3.43%
6,c1ncn(CC2CCCN(Cc3cn4ccsc4n3)C2)n1 (configuration not stated),-5.75%
7,Cn1cc(CN2CCCN(C(=O)c3ccccn3)CC2)cn1,-1.29%
8,CC(C(=O)NC1CC1)N1CCN(Cc2ccn(C)c(=O)c2)CC1 (configuration not stated),0.0611%
9,O=C(NCC1CCOC1)Nc1ccc(Oc2cccc(F)c2)nc1 (configuration not stated),-10.7%
10,CN1CC(C(=O)NCc2ccnc(-n3cccn3)c2)CC1=O (configuration not stated),-22.4%
11,CN(C)c1ccc(C(=O)N2CCN(c3cnccn3)CC2)cn1,-17.1%
12,CCC1c2ccsc2CCN1C(=O)NCc1ccnc(N(C)C)c1 (configuration not stated),-9.44%
13,CN(C)c1cc(C(=O)N2CCN(c3nccs3)CC2)ccn1,-13.8%
14,CCC1c2ccsc2CCN1C(=O)NCc1cccnc1OC (configuration not stated),-11.2%
15,COc1cccc(-n2nnc(C(=O)N3CCCC(C)C3)c2C)c1 (configuration not stated),-10.2%
16,O=C(Nc1nccs1)NC1CCN(Cc2ccccc2)CC1,-15.7%
17,CN(C)c1cc(C(=O)N2CCN(c3cc(C#N)ccn3)CC2)ccn1,-16.5%
18,CCN1CC(C(=O)NCc2ccnc(-n3cccn3)c2)CC1=O (configuration not stated),-4.01%
19,O=C(c1ccc2c(c1)CCCC2)N1CCN(c2cnccn2)CC1,-11.8%
20,CC(Nc1cccc(CN2CCOC2=O)c1)C(=O)Nc1cccc(F)c1 (configuration not stated),-0.899%
21,COc1ccccc1N1CCN(C(=O)c2ccnc(N(C)C)c2)CC1,36.2%
22,Cn1cc(NC(=O)C2CC(c3ccccc3)C2)ccc1=O (configuration not stated),-15.7%
23,O=C(Cc1cn2ccsc2n1)N1CCCC(n2cccn2)C1 (configuration not stated),-3.32%
24,COc1cccc(-n2nnc(C(=O)N3CCOC(C)C3)c2C)c1 (configuration not stated),-1.7%

row,SMILES,cytotoxicity at 70.5 h
1,Cn1cc(NC(=O)N2CCC2c2ccccc2)ccc1=O (configuration not stated),-4.87%
2,c1cncc(-c2noc(CNCC3CCCN3c3cccnn3)n2)c1 (configuration not stated),-2.21%
3,Cc1nc(C(=O)N2CCCN(Cc3cnn(C)c3)CC2)ccc1C#N,-8.5%
4,CC(C)Oc1ccc(C(=O)N2CCCCC2Cn2cccn2)cn1 (configuration not stated),-4.78%
5,CCOc1ccc(C(=O)N2CCCC2Cn2cc(C)cn2)cn1 (configuration not stated),-5.61%
6,NC(=O)CN1CC(c2nc(C3CC3)no2)C1,-7.4%
7,O=C(CN1CC(c2nc(C3CC3)no2)C1)NCc1ccc(F)cc1,-4.69%
8,O=C(CN1CC(c2nc(C3CC3)no2)C1)NCC1CCCO1 (configuration not stated),3.91%
9,O=C(CN1CC(c2nc(Cc3ccccc3)no2)C1)NCC1CCCO1 (configuration not stated),-0.885%
10,O=C(CN1CC(c2nc(-c3ccco3)no2)C1)NCc1ccc(F)cc1,0.546%
11,O=C(CN1CC(c2nc(-c3ccco3)no2)C1)NCC1CCCO1 (configuration not stated),13.7%
12,Fc1ccc(COCC2CCN(Cc3ccccn3)CC2)cc1,-4.18%
13,CNC(=O)C1CCC2(CCN(c3nncs3)CC2)CO1 (configuration not stated),-2.99%
14,CC(C)CN1CCCC2(CCN(c3ccccn3)C2)C1 (configuration not stated),8.64%
15,O=C(C[C@H]1[C@H]2CN(c3ncccn3)C[C@@H]12)Nc1cccnc1,4.76%
16,c1cnc(N2CC[C@@H]3O[C@@H](COCc4cccnc4)CC[C@@H]32)nc1,-0.916%
17,CN(Cc1ccncc1)C1CC2(CCN(c3ncccn3)CC2)C1,-3.37%
18,CN(C)CC1COCCN1C(=O)c1ccccc1C(=O)c1ccccc1 (configuration not stated),-7.66%
19,Cc1ccccc1C(=O)N1CCOCC1CN(C)C (configuration not stated),-9.03%
20,COc1cccc(C(=O)N2CCOCC2CN(C)C)c1OC (configuration not stated),-2.02%
21,CN(C)CC1COCCN1C(=O)C1(c2cccs2)CCCC1 (configuration not stated),0.993%
